The nature of data set [1]: Cytotoxicity against african green monkey Vero cells after 48 hrs by MTS method. It counts as cell-based. As to conditions: chlorocebus sabaeus. (Tetrazolium assays rely on reduction of a dye to a coloured formazan, in cell work by metabolically active cells.)
Data set [2] has as its system West Nile virus. The data set can be described thus: Antiviral activity against West Nile virus NY 1999 infected in african green monkey Vero cells assessed as reduction of virus yield relative to control. It counts as functional, organism-based.
Data set [3] deals with Japanese encephalitis virus. The data set is described as follows: Antiviral activity against Japanese encephalitis virus SA14-2-8 infected in african green monkey Vero cells assessed as reduction of virus yield relative to control. It counts as functional, organism-based.
In data set [4] the test system is West Nile virus. The data set is described as follows: Antiviral activity against West Nile virus NY 1999 infected in african green monkey Vero cells assessed as reduction of virus yield after 5 days post infection at 2.3 uM relative to control. Format: functional.
Data set [5] relates to West Nile virus. The data set is described as follows: Antiviral activity against West Nile virus NY 1999 infected in african green monkey Vero cells assessed as reduction of viral E protein level by immunoblot method. It counts as functional, organism-based.
The test system of data set [6] is West Nile virus. The data set can be described thus: Antiviral activity against West Nile virus in BHK cells assessed as reduction of viral replicon after 48 hrs by luciferase based reporter gene assay relative to control. It counts as functional. On the technique in general: Replicon systems follow genome replication, usually without infectious particles.
The nature of data set [7]: Cytotoxicity against african green monkey Vero cells by trypan blue exclusion assay. Format: cell-based. The conditions noted are these: chlorocebus sabaeus.
In data set [8] the test system is West Nile virus. The data set is described as follows: Antiviral activity against West Nile virus NY 1999 infected in african green monkey Vero cells assessed as reduction of viral RNA level by RT-PCR relative to control. Format: functional.
Data set [9] can be described thus: Selectivity index, ratio of CC50 for african green monkey Vero cells to EC50 for West Nile virus NY 1999. It counts as toxicity, cell-based. The conditions noted are these: read-out: Ratio CC50/EC50.
Data set [10] relates to West Nile virus. The data set can be described thus: Antiviral activity against West Nile virus NY 1999 infected in african green monkey Vero cells assessed as reduction of viral E protein level by immunofluorescence method. It counts as functional, organism-based.
Data set [11] has as its system West Nile virus. The data set is described as follows: Antiviral activity against West Nile virus NY 1999 infected in african green monkey Vero cells assessed as reduction of virus yield after 5 days post infection at 23 uM relative to control. It counts as functional.
The subject of data set [12] is Human immunodeficiency virus 1. The data set can be described thus: Antiviral activity against HIV1 in 293 cells assessed as reduction of viral replicon after 48 hrs by luciferase based reporter gene assay relative to control. Format: functional, organism-based. The conditions noted are these: HEK293.
Data set [13] deals with Human immunodeficiency virus 1. The data set can be described thus: Antiviral activity against HIV1. It counts as functional, organism-based.
The next data set has as its system Human adenovirus 5. The data set is described as follows: Antiviral activity against human adenovirus 5. Format: functional, organism-based.
Another data set relates to Vero. The data set can be described thus: Cytotoxicity against african green monkey Vero cells at 23 uM after 48 hrs by MTS method. Format: cell-based. As to conditions: chlorocebus sabaeus.
A further data set deals with Prospect Hill virus. The data set can be described thus: Antiviral activity against Prospect Hill Hantavirus. Format: functional, organism-based. As to conditions: Orthohantavirus prospectense.
Data set [14] has as its system West Nile virus. The data set can be described thus: Antiviral activity against West Nile virus NY 1999 infected in african green monkey Vero cells assessed as reduction of virus yield administered 2 hrs postinfection. It counts as functional, organism-based.

The structures appear in SMILES notation. Calls of active or inactive are those of the source. No cut-off for these calls is given here.

By CC50 is commonly meant the concentration that lowers cell viability or growth by half. In general, EC50 refers to the midpoint of the concentration-response curve. Consider `O=S1(=O)CS/C(=N\C(=S)N(Cc2ccccc2)Cc2ccccc2)N1c1ccccc1`, for which it took 65 µM to reach half-maximal cytotoxicity in [1] (CC50 at 48 h). The EC50 with West Nile virus [2] is 22 µM; in [3], 65 µM.
`CC(C)N(C(=S)/N=C1\SC(C)S(=O)(=O)N1C)C(C)C` (stereo unspecified) showed a CC50 at 48 h in data set [1] of 90 µM. For the same compound, the EC50 (in the data set with West Nile virus [2]; in [3]) was 30 µM throughout.
On to `O=S1(=O)CS/C(=N\C(=S)N(c2ccccc2)c2ccccc2)N1c1ccccc1`, for which the “fold change (FC)” value was 100 in the data set with West Nile virus [4], over 20 with West Nile virus [6] and 100 in the data set on West Nile virus [11]. Also, the result (in the data set on West Nile virus [5]; in the data set with West Nile virus [10]; in data set [13]; with Human adenovirus 5; in the data set with Prospect Hill virus; in the data set on West Nile virus [14]) was Active. Also, the CC50 in data set [7] is over 70 µM. Further, the Activity in the data set on West Nile virus [8] is on record as over 100; with Vero, “Non-toxic”. The selectivity ratio in data set [9] was over 100. Besides, in data set [12], the result was inactive. In addition, the half-maximal cytotoxic concentration (CC50) at 48 h in data set [1] was over 70 µM. Further, the EC50 with West Nile virus [2] turned out to be 0.7 µM; in data set [3], 7 µM.
As for `CC(C)N(C(=S)/N=C1\SCS(=O)(=O)N1c1ccccc1)C(C)C`, the CC50 at 48 h in data set [1] is over 80 µM. Moreover, the values for the EC50 (in the data set on West Nile virus [2]; in [3]) were 80 µM and 8 µM, respectively.
